#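 Assay format: 96-well plates, 48-hour exposure. The concentration for 50% growth inhibition is given as GI50.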 The source made the active and inactive calls. No stated cut-off is given here; in the data, active = GI50 up to about 1.1 µM and inactive = higher.
# How the values were obtained:
# Assay in all cases: NCI-60 cell line screen, 48 h
# [1] = system: ACHN
# [2] = system: SW-620
# [3] = system: HCT-15
# [4] = system: M14
# [5] = system: OVCAR-3
# [6] = system: HOP-62
# [7] = system: EKVX
# [8] = system: NCI-H522
# [9] = system: COLO 205
# [10] = system: SK-MEL-2
# [11] = system: SNB-75
# [12] = system: SN12C
# [13] = system: SK-MEL-5
# [14] = system: DMS-114
# [15] = system: SK-OV-3
# [16] = system: SF-295
# [17] = system: MOLT-4
# [18] = system: MCF7
# [19] = system: MDA-MB-231
# [20] = system: PC-3
Structure (SMILES),GI50 [1],GI50 [2],GI50 [3] [µM],GI50 [4],GI50 [5],GI50 [6],GI50 [7],GI50 [8],GI50 [9],GI50 [10],GI50 [11],GI50 [12],GI50 [13],GI50 [14],GI50 [15],GI50 [16],GI50 [17],GI50 [18],GI50 [19],GI50 [20]
COC(=O)C(CC(C)=O)CS(=O)(=O)CC(=O)C(=O)Nc1cccc([N+](=O)[O-])c1 (stereo not given),> 100 µM (inactive),> 100 µM (inactive),> 100,> 100 µM (inactive),> 100 µM (inactive),> 100 µM (inactive),> 100 µM (inactive),> 100 µM (inactive),> 100 µM (inactive),> 100 µM (inactive),> 100 µM (inactive),> 100 µM (inactive),> 100 µM (inactive),> 100 µM (inactive),> 100 µM (inactive),–,–,–,–,–
CCOC(=O)c1ncn2c1[nH]c(=O)c1ccccc12,> 100 µM (inactive),> 100 µM (inactive),> 100,> 100 µM (inactive),> 100 µM (inactive),–,> 100 µM (inactive),> 100 µM (inactive),> 100 µM (inactive),> 100 µM (inactive),11.9 µM (inactive),> 100 µM (inactive),> 100 µM (inactive),> 100 µM (inactive),–,> 100 µM (inactive),> 100 µM (inactive),–,–,–
O=C1OC(=O)C2C3CCC(O3)C12 (stereo not given),> 100 µM (inactive),> 100 µM (inactive),–,> 100 µM (inactive),> 100 µM (inactive),> 100 µM (inactive),> 100 µM (inactive),–,> 100 µM (inactive),> 100 µM (inactive),–,> 100 µM (inactive),> 100 µM (inactive),> 100 µM (inactive),> 100 µM (inactive),> 100 µM (inactive),> 100 µM (inactive),–,–,–
COc1ccc(NS(=O)(=O)c2ccc(/N=C3\C=C(Nc4ccc(S(=O)(=O)Nc5ccc(OC)nn5)cc4)C(=O)c4ccccc43)cc2)nn1,19.1 µM (inactive),18.9 µM (inactive),17,17.5 µM (inactive),21 µM (inactive),–,24.8 µM (inactive),17 µM (inactive),17.7 µM (inactive),16.9 µM (inactive),19.8 µM (inactive),18.1 µM (inactive),20.4 µM (inactive),26.5 µM (inactive),18.1 µM (inactive),17.1 µM (inactive),87.9 µM (inactive),–,–,–
O=C(c1ccc(Cl)cc1)c1ccc(OCC(=O)N2CCN(c3ccccc3)CC2)cc1,> 100 µM (inactive),> 100 µM (inactive),> 100,> 100 µM (inactive),> 100 µM (inactive),> 100 µM (inactive),> 100 µM (inactive),–,> 100 µM (inactive),> 100 µM (inactive),> 100 µM (inactive),> 100 µM (inactive),41.6 µM (inactive),33.2 µM (inactive),> 100 µM (inactive),> 100 µM (inactive),62.7 µM (inactive),–,–,–
CC1=NN=C(NCCN(C)C)C/C1=C/c1ccccc1Cl,> 100 µM (inactive),> 100 µM (inactive),> 100,39.4 µM (inactive),> 100 µM (inactive),> 100 µM (inactive),> 100 µM (inactive),–,> 100 µM (inactive),> 100 µM (inactive),20 µM (inactive),> 100 µM (inactive),48.6 µM (inactive),> 100 µM (inactive),> 100 µM (inactive),> 100 µM (inactive),–,–,–,–
N=c1c2c(=S)n(-c3ccccc3)c(=S)n(-c3ccccc3)c2nc(SCCCN2CCCCC2)n1-c1ccccc1,1.7 µM (inactive),2.11 µM (inactive),1.55,1.69 µM (inactive),1.65 µM (inactive),1.76 µM (inactive),1.98 µM (inactive),1.53 µM (inactive),1.77 µM (inactive),1.94 µM (inactive),1.73 µM (inactive),1.78 µM (inactive),1.86 µM (inactive),–,2.26 µM (inactive),4.91 µM (inactive),0.118 µM (active),0.329 µM (active),1.64 µM (inactive),1.66 µM (inactive)
C=C(CCC(C(=O)O)C1CCC2(C)C3=C(CCC12C)C1(C)CCC(O)C(C)(C)C1CC3)C(C)C (stereo not given),44.7 µM (inactive),50.9 µM (inactive),21.8,40.8 µM (inactive),45.6 µM (inactive),8.91 µM (inactive),27.5 µM (inactive),16.6 µM (inactive),> 100 µM (inactive),52 µM (inactive),58.9 µM (inactive),44.6 µM (inactive),33.7 µM (inactive),–,> 100 µM (inactive),38.5 µM (inactive),26.9 µM (inactive),60.7 µM (inactive),71 µM (inactive),77.8 µM (inactive)
COc1ccc(/C=C(/C)[N+](=O)[O-])cc1,1.99 µM (inactive),2.01 µM (inactive),2.28,3.18 µM (inactive),1.82 µM (inactive),1.86 µM (inactive),2.13 µM (inactive),0.292 µM (active),2.08 µM (inactive),4.95 µM (inactive),1.26 µM (inactive),2.1 µM (inactive),2.48 µM (inactive),–,5.98 µM (inactive),6.84 µM (inactive),1.37 µM (inactive),1.22 µM (inactive),3.24 µM (inactive),2.16 µM (inactive)
CC1=C(C(=O)Nc2ccccc2)C(c2ccc([N+](=O)[O-])cc2)C(C(=O)Nc2ccccc2)=C(C)N1,37 µM (inactive),15.2 µM (inactive),17.6,18.1 µM (inactive),21.7 µM (inactive),39.1 µM (inactive),21.5 µM (inactive),18.3 µM (inactive),–,14.7 µM (inactive),26.6 µM (inactive),30.5 µM (inactive),24.1 µM (inactive),20.7 µM (inactive),–,22.4 µM (inactive),7.05 µM (inactive),–,–,–
CC(C)(C)c1ccc(OC(=O)Nc2ccc(O)c(C(=O)O)c2)cc1,> 100 µM (inactive),> 100 µM (inactive),> 100,> 100 µM (inactive),> 100 µM (inactive),> 100 µM (inactive),> 100 µM (inactive),> 100 µM (inactive),> 100 µM (inactive),> 100 µM (inactive),> 100 µM (inactive),> 100 µM (inactive),> 100 µM (inactive),–,> 100 µM (inactive),> 100 µM (inactive),> 100 µM (inactive),> 100 µM (inactive),> 100 µM (inactive),> 100 µM (inactive)
O=C(O)c1ccc(NCc2nc3cc4ccccc4cc3[nH]2)cc1,> 100 µM (inactive),> 100 µM (inactive),26.7,> 100 µM (inactive),> 100 µM (inactive),> 100 µM (inactive),> 100 µM (inactive),> 100 µM (inactive),> 100 µM (inactive),24.7 µM (inactive),98.6 µM (inactive),> 88.5 µM (inactive),> 21.4 µM (inactive),–,> 100 µM (inactive),> 100 µM (inactive),> 100 µM (inactive),2.81 µM (inactive),> 100 µM (inactive),> 100 µM (inactive)
Nc1nc(N)c(N=O)c(Nc2ccc(Br)cc2)n1,6.58 µM (inactive),33.5 µM (inactive),15.3,16.2 µM (inactive),13.1 µM (inactive),14.6 µM (inactive),40.8 µM (inactive),17.9 µM (inactive),19.9 µM (inactive),21.4 µM (inactive),10.4 µM (inactive),17.8 µM (inactive),–,21.8 µM (inactive),32.4 µM (inactive),29 µM (inactive),–,–,–,–
O=C1C=C(c2c(O)ccc3ccccc23)c2cc(O)ccc2C1=O,17.4 µM (inactive),18.2 µM (inactive),16.7,16.4 µM (inactive),10.7 µM (inactive),20 µM (inactive),21.2 µM (inactive),–,19.5 µM (inactive),20.1 µM (inactive),25.4 µM (inactive),18.2 µM (inactive),15.1 µM (inactive),6.14 µM (inactive),23.5 µM (inactive),18.5 µM (inactive),3.09 µM (inactive),–,–,–
COC(=O)C1Cc2ccc3c(c2C1=O)CCCC3 (stereo not given),> 100 µM (inactive),86.5 µM (inactive),69.5,> 100 µM (inactive),80.7 µM (inactive),89.7 µM (inactive),70.5 µM (inactive),> 100 µM (inactive),> 100 µM (inactive),> 100 µM (inactive),89.7 µM (inactive),> 100 µM (inactive),68.2 µM (inactive),–,> 100 µM (inactive),71.4 µM (inactive),21.3 µM (inactive),73.6 µM (inactive),83 µM (inactive),26.2 µM (inactive)
CCCCCCCCCCCOCCC1C(C(C)OCCN2CCCC2)OC2OC(C)(C)OC21 (stereo not given),4.63 µM (inactive),1.78 µM (inactive),2.04,0.869 µM (active),4.95 µM (inactive),1.91 µM (inactive),4.47 µM (inactive),0.853 µM (active),1.92 µM (inactive),1.76 µM (inactive),2.47 µM (inactive),2.53 µM (inactive),1.82 µM (inactive),–,4.24 µM (inactive),2.32 µM (inactive),1.68 µM (inactive),2.65 µM (inactive),1.85 µM (inactive),1.97 µM (inactive)
C/C=C(/I)CBr,21.8 µM (inactive),13.6 µM (inactive),18.2,13.8 µM (inactive),–,22.5 µM (inactive),21.7 µM (inactive),2.03 µM (inactive),13.2 µM (inactive),14.4 µM (inactive),> 10 µM (inactive),17.2 µM (inactive),15.5 µM (inactive),12.6 µM (inactive),30.8 µM (inactive),–,15.9 µM (inactive),–,–,–

# Source: ChEMBL document CHEMBL1201862, “PubChem BioAssay data set” (2004)
